Target: Prothrombin (Homo sapiens, UniProt P00734)
Experiment: Dissociation constant was evaluated by competitive inhibition of alpha-thrombin using the method of Dixon enzyme assay.

| Structure (SMILES) | Ki [µM] |
| --- | --- |
| c1ccc(CN2CCN(Cc3ccccc3)CCN(Cc3ccccc3)CC2)cc1 | 410 |
| O=C(/N=N/c1ccccc1)NNc1ccccc1 | 1.7 |

— ChEMBL document CHEMBL1130958, “Templates for design of inhibitors for serine proteases: application of the program DOCK to the discovery of novel inhibitors for thrombin” (Bioorg Med Chem Lett, 1998)
